Drawing on US8927715B2, “Inhibitors of 11β-hydroxysteroid dehydrogenase type 1” (Vitae Pharmaceuticals, Inc., priority 2006, dated 2015), this text covers IC50 for 24 compounds.

pIC50: −log10 of the molar value. Bounds are passed on as bounds.

For the test, the target named is human 11β-HSD1 (Homo sapiens, UniProt P28845). As to the kind of experiment: Inhibition of a microsomal preparation of 11β-HSD1, SPA (Biological Test Example 2). Type of test: biochemical. Set-up: expressed in transfected cells; host or cells: CHO cells (microsomes). As to conditions: read-out: Biological Test Example 2 (IC50 class). As for the experimental part: All reactions are carried out at room temperature in 96 well clear flexible PET Microbeta plates (PerkinElmer). […] After a 10 minute pre-incubation, 50 μL of enzyme solution containing microsomes isolated from CHO cells overexpressing human 11β-HSD1 (10-20 μg/ml of total protein) is added, and the plates are then incubated for 90 minutes at room temperature. The reaction is stopped by adding 50 μl of the SPA beads suspension containing […] 18β-glycyrrhetinic acid, 5 mg/ml protein A coated YSi SPA beads (GE Healthcare) and 3.3 μg/ml of anti-cortisol antibody (East Coast Biologics) in Superblock buffer (Bio-Rad). The plates are then shaken for 120 minutes at room temperature, and the SPA signal corresponding to [^3H]cortisol is measured on a Microbeta plate reader.
human 11β-HSD1, sequence (P28845 whole entry): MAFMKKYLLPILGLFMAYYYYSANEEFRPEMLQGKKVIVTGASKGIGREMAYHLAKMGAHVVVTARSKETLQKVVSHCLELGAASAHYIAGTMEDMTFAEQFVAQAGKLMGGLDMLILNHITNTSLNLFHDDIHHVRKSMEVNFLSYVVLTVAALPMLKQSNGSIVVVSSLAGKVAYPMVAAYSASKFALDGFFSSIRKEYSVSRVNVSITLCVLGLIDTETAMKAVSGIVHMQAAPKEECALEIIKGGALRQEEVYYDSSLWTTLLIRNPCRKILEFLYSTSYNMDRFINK
On to `COc1ccc2c(c1)CCNC21CCN(C(=O)NC2C3CC4CC(C3)CC2C4)CC1` (stereo not drawn) [Example 77, N-(2-Adamantyl)-6-methoxy-3,4-dihydro-2H-spiro[isoquinoline-1,4′-piperidine]-1′-carboxamide], for which the pIC50 is more than 7.30.
The same measure for `COc1ccc2c(c1)C1(CCN(C(=O)NC3C4CC5CC(C4)CC3C5)CC1)CC2CC(=O)O` (racemic) [Example 59, (±)-2-(1′-((2-Adamantyl)carbamoyl)-6-methoxy-2,3-dihydrospiro[indene-1,4′-piperidine]-3-yl)acetic acid]: more than 7.30; for `O=C(O)CC1CC2(CCN(C(=O)NC3C4CC5CC(C4)CC3C5)CC2)c2c(Br)cccc21` (racemic) [Example 43, (±)-2-(7-Bromo-1′-((2-adamantyl)carbamoyl)-2,3-dihydrospiro[indene-1,4′-piperidine]-3-yl)acetic acid]: more than 7.30.
Consider `CS(=O)(=O)NC(=O)CC1CC2(CCN(C(=O)NC3C4CC5CC(C4)CC3C5)CC2)c2c(Br)cccc21` (racemic) [Example 70, (±)-7-Bromo-N-(2-adamantyl)-3-(2-(methylsulfonamido)-2-oxoethyl)-2,3-dihydrospiro[indene-1,4′-piperidine]-1′-carboxamide], for which the negative-log IC50 (pIC50) is more than 7.30.
For the compound `CNCCN(C)C(=O)CC1CC2(CCN(C(=O)NC3C4CC5CC(C4)CC3C5)CC2)c2c(Br)cccc21` (stereo not drawn) [Example 115, 7-Bromo-N-(2-adamantyl)-3-(2-(methyl(2-(methylamino)ethyl)amino)-2-oxoethyl)-2,3-dihydrospiro[indene-1,4′-piperidine]-1′-carboxamide], the pIC50 is more than 7.30.
Take `O=C(O)CC1CC2(CCN(C(=O)NC3C4CC5(O)CC3CC(O)(C4)C5)CC2)c2c(Br)cccc21` (racemic) [Example 76, (±)-2-(7-Bromo-1′-(1,7-dihydroxy-4-adamantylcarbamoyl)-2,3-dihydrospiro[indene-1,4′-piperidine]-3-yl)acetic acid]: the pIC50 was 6.00 to 7.30.
As for `O=C(CC1CC2(CCN(C(=O)NC3C4CC5CC(C4)CC3C5)CC2)c2c(Br)cccc21)N1CCOCC1` (stereo not drawn) [Example 111, 7-Bromo-N-(2-adamantyl)-3-(2-morpholino-2-oxoethyl)-2,3-dihydrospiro[indene-1,4′-piperidine]-1′-carboxamide], the pIC50 is more than 7.30.
Consider “3-(1′-(2-Adamantyloxycarbonyl)-1H-spiro[isoquinoline-4,4′-piperidine]-2(3H)-ylsulfonyl)propanoic acid [Example 109]”, for which the pIC50 is more than 7.30.
`O=C(O)CC1CC2(CCN(C(=O)NC3C4CC5CC(C4)CC3C5)CC2)c2cc(F)ccc21` (racemic) [Example 60, (±)-2-(1′-((2-Adamantyl)carbamoyl)-6-fluoro-2,3-dihydrospiro[indene-1,4′-piperidine]-3-yl)acetic acid]: the pIC50 was more than 7.30.
Take `O=C(NC1C2CC3CC(C2)CC1C3)N1CCC2(CC1)CC(Cc1nnn[nH]1)c1ccccc12` (racemic) [Example 46, (±)-3-((1H-Tetrazol-5-yl)methyl)-N-(2-adamantyl)-2,3-dihydrospiro[indene-1,4′-piperidine]-1′-carboxamide]: the pIC50 is more than 7.30.
In the case of `CN(C)CCCC(=O)N1Cc2ccccc2C2(CCN(C(=O)NC3C4CC5CC(C4)CC3C5)CC2)C1` (stereo not drawn) [Example 113, N-(2-Adamantyl)-2-(4-(dimethylamino)butanoyl)-2,3-dihydro-1H-spiro[isoquinoline-4,4′-piperidine]-1′-carboxamide], the negative logarithm of the IC50 (pIC50) is more than 7.30.
Consider `COC(=O)CCS(=O)(=O)N1Cc2ccccc2C2(CCN(C(=O)OC3C4CC5CC(C4)CC3C5)CC2)C1` (stereo not drawn) [Example 107, 2-Adamantyl 2-(3-methoxy-3-oxopropylsulfonyl)-2,3-dihydro-1H-spiro[isoquinoline-4,4′-piperidine]-1′-carboxylate], for which the pIC50 was more than 7.30.
Turning to `CCOC(=O)CC1CC2(CCN(C(=O)NC3C4CC5CC(C4)CC3C5)CC2)c2c(Br)cccc21` (racemic) [Example 42, (±)-Ethyl 2-(7-bromo-1′-((2-adamantyl)carbamoyl)-2,3-dihydrospiro[indene-1,4′-piperidine]-3-yl)acetate], the pIC50 is more than 7.30.
With `CC(C(=O)O)C1CC2(CCN(C(=O)NC3C4CC5CC(C4)CC3C5)CC2)c2c(Br)cccc21` (stereo not drawn) [Example 66, 2-(7-Bromo-1′-((2-adamantyl)carbamoyl)-2,3-dihydrospiro[indene-1,4′-piperidine]-3-yl)propanoic acid], the pIC50 is more than 7.30.
As for `COc1cc(CNC(=O)C23CC4CC(C2)C(OC(=O)N2CCC5(CC2)CC(CC(=O)O)c2ccccc25)C(C4)C3)cc(OC)c1` (stereo not drawn) [Example 72, 2-(1′-((1-(3,5-Dimethoxybenzylcarbamoyl)-4-adamantyloxy)carbonyl)-2,3-dihydrospiro[indene-1,4′-piperidine]-3-yl)acetic acid], the pIC50 was 6.00 to 7.30.
Turning to `O=C(O)CCS(=O)(=O)N1Cc2ccccc2C2(CCN(C(=O)NC3C4CC5CC(C4)CC3C5)CC2)C1` (stereo not drawn) [Example 108, 3-(1′-(2-Adamantylcarbamoyl)-1H-spiro[isoquinoline-4,4′-piperidine]-2(3H)-ylsulfonyl)propanoic acid], the pIC50 is more than 7.30.
`CC(C)(C)OC(=O)N1Cc2ccccc2C2(CCN(C(=O)OC3C4CC5CC(C4)CC3C5)CC2)C1` (stereo not drawn) [Example 37, 2-Tert-butyl 1′-(2-adamantyl) 1H-spiro[isoquinoline-4,4′-piperidine]-1′,2(3H)-dicarboxylate]: the pIC50 is more than 7.30.
In the case of `O=C(O)CC1CC2(CCN(C(=O)OC3C4CC5CC3CC(C(=O)NCc3ccccc3)(C5)C4)CC2)c2ccccc21` (stereo not drawn) [Example 89, 2-(1′-((1-(Benzylcarbamoyl)-4-adamantyloxy)carbonyl)-2,3-dihydrospiro[indene-1,4′-piperidine]-3-yl)acetic acid] it was 6.00 to 7.30.
For `O=C(CC1CC2(CCN(C(=O)NC3C4CC5CC(C4)CC3C5)CC2)c2c(Br)cccc21)NCCN1CCNCC1` (stereo not drawn) [Example 119, 7-Bromo-N-(2-adamantyl)-3-(2-oxo-2-(2-(piperazin-1-yl)ethylamino)ethyl)-2,3-dihydrospiro[indene-1,4′-piperidine]-1′-carboxamide], the pIC50 was more than 7.30.
In the case of `Cc1ccc2c(c1)C1(CCN(C(=O)OC3C4CC5CC(C4)CC3C5)CC1)CC2CC(=O)O` (racemic) [Example 64, (±)-2-(6-Methyl-1′-((2-adamantyloxy)carbonyl)-2,3-dihydrospiro[indene-1,4′-piperidine]-3-yl)acetic acid], the pIC50 was more than 7.30.
In the case of `O=C(O)CC1CC2(CCN(C(=O)NC3C4CC5CC3CC(F)(C5)C4)CC2)c2c(Br)cccc21` (stereo not drawn) [Example 74] it was more than 7.30; in that of `N#CCC1CC2(CCN(C(=O)NC3C4CC5CC(C4)CC3C5)CC2)c2ccccc21` (racemic) [Example 45], more than 7.30; in that of `O=C(O)CC1CC2(CCN(C(=O)NC3C4CC5CC(C4)CC3C5)CC2)c2c(Cl)cccc21` (racemic) [Example 52, (±)-2-(1′-((2-Adamantyl)carbamoyl)-7-chloro-2,3-dihydrospiro[indene-1,4′-piperidine]-3-yl)acetic acid], more than 7.30.
With `CN(C)CCCNC(=O)CC1CC2(CCN(C(=O)NC3C4CC5CC(C4)CC3C5)CC2)c2c(Br)cccc21` (stereo not drawn) [Example 117, 7-Bromo-N-(2-adamantyl)-3-(2-(3-(dimethylamino)propylamino)-2-oxoethyl)-2,3-dihydrospiro[indene-1,4′-piperidine]-1′-carboxamide], the pIC50 is more than 7.30.

The term pIC50 denotes −log10 of the IC50, conventionally taken in molar units.
